Publication PMC5421785, “Citrullination only infrequently impacts peptide binding to HLA class II MHC” (PLoS ONE, 2017)
Where two headings read alike, the source gives them in different places. Square brackets hold non-standard residues; d marks the D form. Peptide text beside a SMILES is read from it. Cit = NC(=O)NCCC[C@H](N)C(=O)O

How the values were obtained:
HLA-DRB1*01:01 = molecular target: T1, HLA-DRB1*01:01 (Homo sapiens, UniProt P01903+P01911, A100R/D57E/F55L/F60I/F76Y/I96L/L162R/M171V/P40L/Q125E/R42F/V115G/Y59C); test: HLA class II peptide binding, inhibition of radiolabeled peptide binding to purified MHC
T1 construct: EBV transformed homozygous cell lines were used as sources of MHC molecules; endogenous in cells; host or cells: EBV transformed homozygous cell lines

HLA-DRB1*04:01 = molecular target: T2, HLA-DRB1*04:01 (Homo sapiens, UniProt P01903+P01911, A100K/A169T/F76Y/I96L/K127E/L162R/M171V/N62H/P40V/Q125Y/R42H/S133A/S149N/S66Y/V115G/V209L/W38E); test: as above
T2 construct: EBV transformed homozygous cell lines were used as sources of MHC molecules; endogenous in cells; host or cells: EBV transformed homozygous cell lines

[1] = citrullinated 15-mer (X), purified MHC, inhibition of radiolabeled peptide binding, dash = IC50 >40,000 nM, read-out: DRB1*01:01 binding capacity, Cit peptide (IC50 nM)
[2] = citrullinated 15-mer (X), purified MHC, inhibition of radiolabeled peptide binding, dash = IC50 >40,000 nM, read-out: DRB1*04:01 binding capacity, Cit peptide (IC50 nM)
[3] = citrullinated 15-mer peptide (X = citrulline), purified HLA-DRB1*01:01, read-out: DRB1*01:01 binding capacity, Cit peptide (IC50 nM)
[4] = citrullinated 15-mer peptide (X = citrulline), purified HLA-DRB1*04:01, read-out: DRB1*04:01 binding capacity, Cit peptide (IC50 nM)
[5] = ratio of WT IC50 to Cit IC50, >1 = citrullination increases binding

Row | Compound | IC50 (HLA-DRB1*01:01; [1]) | IC50 (HLA-DRB1*04:01; [2]) | further results
1 | CSCC[C@H](NC(=O)[C@H](CCCNC(=N)N)NC(=O)[C@H](CCCNC(N)=O)NC(=O)[C@H](Cc1ccc(O)cc1)NC(=O)[C@H](CO)NC(=O)[C@H](CO)NC(=O)[C@H](CO)NC(=O)[C@H](CO)NC(=O)[C@@H](NC(=O)[C@H](CO)NC(=O)[C@H](CCCNC(=N)N)NC(=O)[C@@H](NC(=O)[C@H](CO)NC(=O)[C@@H](N)CCSC)[C@@H](C)O)C(C)C)C(=O)N[C@@H](Cc1ccccc1)C(=O)O [MSTRSVSSSSYXRMF] (H-MSTRSVSSSSY[Cit]RMF-OH) | 1080 nM | 980 nM | –
2 | CSCC[C@H](NC(=O)[C@H](CCCNC(=N)N)NC(=O)[C@H](CCCNC(=N)N)NC(=O)[C@H](Cc1ccc(O)cc1)NC(=O)[C@H](CO)NC(=O)[C@H](CO)NC(=O)[C@H](CO)NC(=O)[C@H](CO)NC(=O)[C@@H](NC(=O)[C@H](CO)NC(=O)[C@H](CCCNC(N)=O)NC(=O)[C@@H](NC(=O)[C@H](CO)NC(=O)[C@@H](N)CCSC)[C@@H](C)O)C(C)C)C(=O)N[C@@H](Cc1ccccc1)C(=O)O [MSTXSVSSSSYRRMF] (H-MST[Cit]SVSSSSYRRMF-OH) | 573 nM | 1080 nM | –
3 | CC(C)C[C@H](NC(=O)[C@H](C)NC(=O)[C@H](CC(=O)O)NC(=O)[C@@H](N)CC(N)=O)C(=O)N[C@@H](CCCNC(=N)N)C(=O)N[C@@H](CCC(N)=O)C(=O)N[C@@H](C)C(=O)N[C@@H](CCCCN)C(=O)N[C@@H](CCC(N)=O)C(=O)N[C@@H](CCC(=O)O)C(=O)N[C@@H](CO)C(=O)N[C@H](C(=O)N[C@@H](CCC(=O)O)C(=O)N[C@@H](Cc1ccc(O)cc1)C(=O)N[C@@H](CCCNC(N)=O)C(=O)O)[C@@H](C)O [NDALRQAKQESTEYX] (H-NDALRQAKQESTEY[Cit]-OH) | – | – | IC50 (HLA-DRB1*01:01; [3]): 34200 nM; IC50 (HLA-DRB1*04:01; [4]): 39500 nM
4 | CC(C)C[C@H](NC(=O)[C@H](C)NC(=O)[C@H](CC(=O)O)NC(=O)[C@@H](N)CC(N)=O)C(=O)N[C@@H](CCCNC(N)=O)C(=O)N[C@@H](CCC(N)=O)C(=O)N[C@@H](C)C(=O)N[C@@H](CCCCN)C(=O)N[C@@H](CCC(N)=O)C(=O)N[C@@H](CCC(=O)O)C(=O)N[C@@H](CO)C(=O)N[C@H](C(=O)N[C@@H](CCC(=O)O)C(=O)N[C@@H](Cc1ccc(O)cc1)C(=O)N[C@@H](CCCNC(=N)N)C(=O)O)[C@@H](C)O [NDALXQAKQESTEYR] (H-NDAL[Cit]QAKQESTEYR-OH) | – | – | IC50 (HLA-DRB1*01:01; [3]): 22600 nM; IC50 (HLA-DRB1*04:01; [4]): > 40000 nM
5 | CC(C)C[C@H](NC(=O)[C@H](CC(N)=O)NC(=O)[C@H](CC(=O)O)NC(=O)[C@H](CCCNC(N)=O)NC(=O)[C@H](CCC(=O)O)NC(=O)[C@@H](NC(=O)[C@H](CCC(=O)O)NC(=O)[C@@H](NC(=O)[C@H](CCCNC(=N)N)NC(=O)[C@H](C)NC(=O)[C@H](CCCCN)NC(=O)[C@H](CC(=O)O)NC(=O)[C@@H](N)CC(N)=O)C(C)C)C(C)C)C(=O)N[C@@H](C)C(=O)N[C@@H](CCC(=O)O)C(=O)O [NDKARVEVEXDNLAE] (H-NDKARVEVE[Cit]DNLAE-OH) | 578 nM | 1410 nM | –
6 | CC(C)C[C@H](NC(=O)[C@H](CC(N)=O)NC(=O)[C@H](CC(=O)O)NC(=O)[C@H](CCCNC(=N)N)NC(=O)[C@H](CCC(=O)O)NC(=O)[C@@H](NC(=O)[C@H](CCC(=O)O)NC(=O)[C@@H](NC(=O)[C@H](CCCNC(N)=O)NC(=O)[C@H](C)NC(=O)[C@H](CCCCN)NC(=O)[C@H](CC(=O)O)NC(=O)[C@@H](N)CC(N)=O)C(C)C)C(C)C)C(=O)N[C@@H](C)C(=O)N[C@@H](CCC(=O)O)C(=O)O [NDKAXVEVERDNLAE] (H-NDKA[Cit]VEVERDNLAE-OH) | 1070 nM | 905 nM | –
7 | CC[C@H](C)[C@H](NC(=O)[C@H](Cc1ccc(O)cc1)NC(=O)[C@H](CC(N)=O)NC(=O)[C@H](C)NC(=O)[C@H](Cc1ccccc1)NC(=O)[C@H](CCCNC(=N)N)NC(=O)[C@H](CC(=O)O)NC(=O)[C@@H](N)CC(N)=O)C(=O)N[C@@H](CC(=O)O)C(=O)N[C@@H](CCCCN)C(=O)N[C@H](C(=O)N[C@@H](CCCNC(N)=O)C(=O)N[C@@H](Cc1ccccc1)C(=O)N[C@@H](CC(C)C)C(=O)N[C@@H](CCC(=O)O)C(=O)O)C(C)C [NDRFANYIDKVXFLE] (H-NDRFANYIDKV[Cit]FLE-OH) | 229 nM | 5660 nM | –
8 | CC[C@H](C)[C@H](NC(=O)[C@H](Cc1ccc(O)cc1)NC(=O)[C@H](CC(N)=O)NC(=O)[C@H](C)NC(=O)[C@H](Cc1ccccc1)NC(=O)[C@H](CCCNC(N)=O)NC(=O)[C@H](CC(=O)O)NC(=O)[C@@H](N)CC(N)=O)C(=O)N[C@@H](CC(=O)O)C(=O)N[C@@H](CCCCN)C(=O)N[C@H](C(=O)N[C@@H](CCCNC(=N)N)C(=O)N[C@@H](Cc1ccccc1)C(=O)N[C@@H](CC(C)C)C(=O)N[C@@H](CCC(=O)O)C(=O)O)C(C)C [NDXFANYIDKVRFLE] (H-ND[Cit]FANYIDKVRFLE-OH) | 816 nM | 10900 nM | –
9 | CSCC[C@H](NC(=O)[C@H](CCC(=O)O)NC(=O)[C@H](CCC(=O)O)NC(=O)[C@H](CCCCN)NC(=O)[C@H](CCSC)NC(=O)[C@@H](N)CC(N)=O)C(=O)N[C@@H](C)C(=O)N[C@@H](CCCNC(=N)N)C(=O)N[C@@H](Cc1c[nH]cn1)C(=O)N[C@@H](CC(C)C)C(=O)N[C@@H](CCCNC(N)=O)C(=O)N[C@@H](CCC(=O)O)C(=O)N[C@@H](Cc1ccc(O)cc1)C(=O)N[C@@H](CCC(N)=O)C(=O)N[C@@H](CC(=O)O)C(=O)O [NMKEEMARHLXEYQD] | – | – | IC50 (HLA-DRB1*01:01; [3]): 5060 nM; IC50 (HLA-DRB1*04:01; [4]): > 40000 nM
10 | CSCC[C@H](NC(=O)[C@H](CCC(=O)O)NC(=O)[C@H](CCC(=O)O)NC(=O)[C@H](CCCCN)NC(=O)[C@H](CCSC)NC(=O)[C@@H](N)CC(N)=O)C(=O)N[C@@H](C)C(=O)N[C@@H](CCCNC(N)=O)C(=O)N[C@@H](Cc1c[nH]cn1)C(=O)N[C@@H](CC(C)C)C(=O)N[C@@H](CCCNC(=N)N)C(=O)N[C@@H](CCC(=O)O)C(=O)N[C@@H](Cc1ccc(O)cc1)C(=O)N[C@@H](CCC(N)=O)C(=O)N[C@@H](CC(=O)O)C(=O)O [NMKEEMAXHLREYQD] | – | – | IC50 (HLA-DRB1*01:01; [3]): 5190 nM; IC50 (HLA-DRB1*04:01; [4]): > 40000 nM
11 | CC(C)C[C@H](NC(=O)[C@H](C)NC(=O)[C@@H](NC(=O)[C@H](Cc1ccc(O)cc1)NC(=O)[C@@H](NC(=O)[C@H](Cc1ccccc1)NC(=O)[C@H](CCCNC(N)=O)NC(=O)[C@H](CO)NC(=O)[C@@H](N)CC(N)=O)[C@@H](C)O)[C@@H](C)O)C(=O)N[C@@H](CCCCN)C(=O)N[C@@H](CC(=O)O)C(=O)NCC(=O)N[C@@H](CS)C(=O)N[C@H](C(=O)N[C@@H](CCCCN)C(=O)O)[C@@H](C)O [NSXFTYTALKDGCTK] (H-NS[Cit]FTYTALKDGCTK-OH) | – | – | IC50 (HLA-DRB1*01:01; citrullinated peptide as listed (X at Cit position), read-out: DRB1*01:01 binding capacity Cit peptide (IC50 nM)): 44 nM; IC50 (HLA-DRB1*01:01; value of the wild-type (non-citrullinated) counterpart of the listed peptide, read-out: DRB1*01:01 binding capacity WT peptide (IC50 nM)): 15 nM; IC50 (HLA-DRB1*04:01; citrullinated peptide as listed (X at Cit position), read-out: DRB1*04:01 binding capacity Cit peptide (IC50 nM)): 12400 nM; IC50 (HLA-DRB1*04:01; value of the wild-type (non-citrullinated) counterpart of the listed peptide, read-out: DRB1*04:01 binding capacity WT peptide (IC50 nM)): 4170 nM
12 | CC[C@H](C)[C@H](NC(=O)[C@H](CCCNC(N)=O)NC(=O)[C@H](CS)NC(=O)[C@@H]1CCCN1)C(=O)N[C@@H](CS)C(=O)N[C@H](C(=O)N[C@@H](CS)C(=O)N[C@@H](CC(=O)O)C(=O)N[C@H](C(=O)NCC(=O)N[C@H](C(=O)N[C@H](C(=O)N[C@@H](CC(C)C)C(=O)N[C@@H](CS)C(=O)N[C@@H](CC(=O)O)C(=O)O)C(C)C)[C@@H](C)O)[C@@H](C)O)C(C)C [PCXICVCDTGTVLCD] (H-PC[Cit]ICVCDTGTVLCD-OH; N-terminus and C-terminus assumed) | – | – | DRB1*01:01 binding capacity, WT/cit ratio (HLA-DRB1*01:01; [5]): 0.463; DRB1*04:01 binding capacity, WT/cit ratio (HLA-DRB1*04:01; [5]): 1.2
13 | C[C@H](NC(=O)CNC(=O)[C@H](CCC(N)=O)NC(=O)[C@@H]1CCCN1C(=O)CNC(=O)[C@@H]1CCCN1C(=O)[C@@H]1CCCN1C(=O)CNC(=O)[C@H](CCCNC(N)=O)NC(=O)[C@@H]1CCCN1C(=O)CNC(=O)[C@@H]1CCCN1C(=O)[C@H](Cc1ccccc1)NC(=O)CNC(=O)[C@@H]1CCCN1)C(=O)O [PGFPGPXGPPGPQGA] (H-PGFPGP[Cit]GPPGPQGA-OH) | – | – | IC50 (HLA-DRB1*01:01; citrullinated 15-mer peptide (X = citrulline), […], read-out: DRB1*01:01 binding capacity, Cit peptide (IC50 nM)): > 40000 nM; IC50 (HLA-DRB1*04:01; citrullinated 15-mer peptide (X = citrulline), […], read-out: DRB1*04:01 binding capacity, Cit peptide (IC50 nM)): 37800 nM

Further lines, with some results ahead:

Row | IC50 (HLA-DRB1*01:01; [1]) | IC50 (HLA-DRB1*04:01; [2]) | Compound | further results
14 | 2000 nM | 702 nM | CC(C)C[C@H](NC(=O)[C@H](CO)NC(=O)[C@H](C)NC(=O)[C@H](CC(N)=O)NC(=O)[C@H](CC(=O)O)NC(=O)[C@@H](NC(=O)[C@H](CC(=O)O)NC(=O)[C@H](CCC(N)=O)NC(=O)[C@H](CCCNC(N)=O)NC(=O)[C@H](Cc1ccccc1)NC(=O)[C@H](CO)NC(=O)[C@H](CCC(N)=O)NC(=O)[C@H](CC(C)C)NC(=O)[C@@H](NC(=O)[C@@H](N)CC(N)=O)[C@@H](C)O)C(C)C)C(=O)O [NTLQSFXQDVDNASL] (H-NTLQSF[Cit]QDVDNASL-OH) | –
15 | 102 nM | 1210 nM | CC[C@H](C)[C@H](NC(=O)[C@H](CCCCN)NC(=O)[C@H](CC(N)=O)NC(=O)[C@H](CCC(N)=O)NC(=O)[C@H](CCC(N)=O)NC(=O)[C@H](CCC(=O)O)NC(=O)[C@H](CC(C)C)NC(=O)[C@H](Cc1ccccc1)NC(=O)[C@H](CCCNC(N)=O)NC(=O)[C@@H](NC(=O)[C@H](CCCCN)NC(=O)[C@H](CC(=O)O)NC(=O)[C@@H](NC(=O)[C@H](Cc1ccc(O)cc1)NC(=O)[C@@H](N)CC(N)=O)[C@@H](C)CC)C(C)C)C(=O)O [NYIDKVXFLEQQNKI] (H-NYIDKV[Cit]FLEQQNKI-OH) | –
